The values that follow come from patent US20230027026A1, “FUSED PYRIMIDINE COMPOUNDS, COMPOSITIONS AND MEDICINAL APPLICATIONS THEREOF” (JUBILANT BIOSYS LIMITED, priority 2019, published 2023).

Type in all cases: cell-based
Assay [1] deals with A431 cells. The experiment in a line: Cellular proliferation (Alamar Blue) assay, A431. As to conditions: Homo sapiens, A-431; A431 cells, 72 hr, Alamar Blue; read-out: A431 IC50. The method in brief: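 Following a 16–18 h pre-incubation, cells received compound or DMSO for 72 h at 37 °C across a 10–0.0005 μM final range. Proliferation was then scored by Alamar Blue fluorescence (540 nm excitation, 590 nm emission) after 3 h.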
Background: The colour change of resazurin is a common sign of viable cells or microbes.

The target of assay [2] is EGFR (A767_dupASV) expressing Ba/F3 stable cell line (Homo sapiens, UniProt P00533, DUP767-769, cells depend on it). The experiment in a line: Cellular proliferation (Alamar Blue) assay, EGFR A767_dupASV Ba/F3. As to conditions: EGFR A767_dupASV Ba/F3, 72 hr, read-out: A767 IC50. The method in brief: (§1)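 Ba/F3 lines (15,000 cells/well, RPMI with 10% FBS) expressing mutant EGFR or HER2, plus BT-474 cells, treated 72 h at 37 °C with compound at 10-0.0005 μM final, 3-fold dilutions. Viability by Alamar Blue after 3 h, fluorescence 540 nm excitation/590 nm emission.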
Chain of EGFR (A767_dupASV) expressing Ba/F3 stable cell line (P00533 with tags, fused parts or gaps DUP767-769): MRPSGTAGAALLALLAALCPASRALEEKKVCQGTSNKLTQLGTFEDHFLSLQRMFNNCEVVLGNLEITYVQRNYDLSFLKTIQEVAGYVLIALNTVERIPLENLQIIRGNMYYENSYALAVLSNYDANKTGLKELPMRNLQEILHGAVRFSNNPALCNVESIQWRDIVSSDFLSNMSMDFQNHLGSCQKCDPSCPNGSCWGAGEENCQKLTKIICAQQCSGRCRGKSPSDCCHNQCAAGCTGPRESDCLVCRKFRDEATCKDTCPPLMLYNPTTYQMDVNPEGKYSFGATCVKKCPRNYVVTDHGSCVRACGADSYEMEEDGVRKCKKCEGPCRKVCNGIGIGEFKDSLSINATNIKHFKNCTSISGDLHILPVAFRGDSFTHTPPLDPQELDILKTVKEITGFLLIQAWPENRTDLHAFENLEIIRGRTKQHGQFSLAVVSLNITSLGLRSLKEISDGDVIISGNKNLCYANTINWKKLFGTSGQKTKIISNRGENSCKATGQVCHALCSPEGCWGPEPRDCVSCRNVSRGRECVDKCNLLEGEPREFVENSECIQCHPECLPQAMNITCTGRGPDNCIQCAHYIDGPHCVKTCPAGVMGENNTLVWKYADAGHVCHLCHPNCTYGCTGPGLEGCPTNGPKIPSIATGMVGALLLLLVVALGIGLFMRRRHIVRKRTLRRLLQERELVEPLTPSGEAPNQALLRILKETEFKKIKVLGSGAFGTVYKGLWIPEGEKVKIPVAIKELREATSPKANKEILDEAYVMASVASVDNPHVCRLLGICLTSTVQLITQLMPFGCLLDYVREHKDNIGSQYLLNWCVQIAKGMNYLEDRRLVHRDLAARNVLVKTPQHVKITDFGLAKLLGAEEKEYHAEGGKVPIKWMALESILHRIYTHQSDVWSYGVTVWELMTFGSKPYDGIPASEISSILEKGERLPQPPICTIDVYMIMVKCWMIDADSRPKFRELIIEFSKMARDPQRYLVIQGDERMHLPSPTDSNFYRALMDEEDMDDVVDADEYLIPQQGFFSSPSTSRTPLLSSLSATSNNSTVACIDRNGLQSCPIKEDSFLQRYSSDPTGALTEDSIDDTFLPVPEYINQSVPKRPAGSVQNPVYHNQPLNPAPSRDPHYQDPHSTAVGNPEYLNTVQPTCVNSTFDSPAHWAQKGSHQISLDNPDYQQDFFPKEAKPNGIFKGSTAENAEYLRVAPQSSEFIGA

In assay [3] the target is EGFR(D770_N771insSVD) expressing Ba/F3 stable cell line (Homo sapiens, UniProt P00533, DUP768-770, cells depend on it). The assay can be described thus: Cellular proliferation (Alamar Blue) assay, EGFR D770_N771insSVD Ba/F3. As to conditions: EGFR D770_N771insSVD Ba/F3, 72 hr, read-out: D770 IC50. In outline:
as §1

In assay [4] the target is HER2 (A775_G776insYVMA) expressing Ba/F3 stable cell line (Homo sapiens, UniProt P04626, DUP772-775, cells depend on it). The experiment in a line: Cellular proliferation (Alamar Blue) assay, HER2 YVMA Ba/F3. As to conditions: HER2 A775_G776insYVMA Ba/F3, 72 hr, read-out: YVMA IC50. The procedure: Example 3: Cellular Proliferation (Alamar Blue) Assays
Chain of HER2 (A775_G776insYVMA) expressing Ba/F3 stable cell line (P04626 with tags, fused parts or gaps DUP772-775): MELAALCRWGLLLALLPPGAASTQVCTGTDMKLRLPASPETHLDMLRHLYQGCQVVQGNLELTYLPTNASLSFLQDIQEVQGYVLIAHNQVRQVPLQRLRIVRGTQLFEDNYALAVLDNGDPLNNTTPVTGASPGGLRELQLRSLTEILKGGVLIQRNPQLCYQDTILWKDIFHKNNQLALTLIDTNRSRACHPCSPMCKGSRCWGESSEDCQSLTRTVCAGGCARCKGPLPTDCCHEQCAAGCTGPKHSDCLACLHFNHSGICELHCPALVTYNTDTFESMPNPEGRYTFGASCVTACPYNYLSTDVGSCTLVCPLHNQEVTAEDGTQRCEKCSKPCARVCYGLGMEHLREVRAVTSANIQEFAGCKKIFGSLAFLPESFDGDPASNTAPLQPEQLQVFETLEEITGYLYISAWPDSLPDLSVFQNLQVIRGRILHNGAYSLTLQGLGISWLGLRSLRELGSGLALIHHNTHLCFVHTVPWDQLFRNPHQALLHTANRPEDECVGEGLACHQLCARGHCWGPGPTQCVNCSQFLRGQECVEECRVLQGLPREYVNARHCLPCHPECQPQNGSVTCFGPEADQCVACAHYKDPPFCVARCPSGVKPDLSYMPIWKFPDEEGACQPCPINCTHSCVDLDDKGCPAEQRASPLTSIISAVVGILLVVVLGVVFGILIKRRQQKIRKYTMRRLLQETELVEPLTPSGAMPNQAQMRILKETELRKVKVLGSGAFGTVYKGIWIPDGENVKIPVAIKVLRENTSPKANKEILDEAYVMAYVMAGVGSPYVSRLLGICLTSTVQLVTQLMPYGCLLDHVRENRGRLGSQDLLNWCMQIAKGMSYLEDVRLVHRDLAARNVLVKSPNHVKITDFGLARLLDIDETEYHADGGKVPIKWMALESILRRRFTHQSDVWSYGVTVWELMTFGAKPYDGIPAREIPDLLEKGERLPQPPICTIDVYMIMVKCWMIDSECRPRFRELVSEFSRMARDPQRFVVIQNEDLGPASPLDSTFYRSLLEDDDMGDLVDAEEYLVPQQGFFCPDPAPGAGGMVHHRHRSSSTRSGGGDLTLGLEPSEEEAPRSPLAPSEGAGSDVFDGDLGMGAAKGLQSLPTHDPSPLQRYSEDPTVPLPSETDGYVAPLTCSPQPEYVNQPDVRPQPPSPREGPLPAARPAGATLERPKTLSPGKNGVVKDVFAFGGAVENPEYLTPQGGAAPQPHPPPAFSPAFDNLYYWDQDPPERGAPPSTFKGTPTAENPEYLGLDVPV
• 1. EGFR(D770_N771insSVD) expressing Ba/F3 stable cell line • 2. EGFR (A767_dupASV) expressing Ba/F3 stable cell line • 3. A431 cells • 4. BTER2 (A775_G776insYVMA) expressing Ba/F3 stable cell line • 5. BTER2 (WT) expressing Ba/F3 stable cell line • 6. BT-474 cells
• 1. Seed cells at 5000 for A431 and 15,000 cells for Ba/F3 in 100 μL/well in complete media (for A431: DMEM with 10% FBS and for Ba/F3 cells: RPMI with 10% FBS) in 96-well tissue culture plate. Leave outer wells without cells for background measurements. Incubate at 37 degree Celsius in 5% CO2 humidified incubator for 16-18 hours. • 2. Add 0.025 ml of 5× concentration compound dilution or DMSO control. Final compound concentration range is 10-0.0005 μM prepared in 3-fold serial dilutions. Incubate for 72 hr at 37 degree Celsius in […] humidified incubator. • 3. Add 0.0125 mL Alamar Blue™ reagent to each well with multi-channel pipette and tap gently on each side of the plate to mix. Incubate for 3 hours at 37 degree Celsius in […] humidified incubator. • 4. Read plates on fluorescence reader (Tecan Spark Control, Device: Spark, Serial #: 1801006040) at 540 nm excitation, 590 nm emission wavelength. • 5. Data analysis was performed using XLfit 5.5.0.5.

Where a name gives a salt, the structure may show the parent alone.

Chain of EGFR(D770_N771insSVD) expressing Ba/F3 stable cell line (P00533 with tags, fused parts or gaps DUP768-770): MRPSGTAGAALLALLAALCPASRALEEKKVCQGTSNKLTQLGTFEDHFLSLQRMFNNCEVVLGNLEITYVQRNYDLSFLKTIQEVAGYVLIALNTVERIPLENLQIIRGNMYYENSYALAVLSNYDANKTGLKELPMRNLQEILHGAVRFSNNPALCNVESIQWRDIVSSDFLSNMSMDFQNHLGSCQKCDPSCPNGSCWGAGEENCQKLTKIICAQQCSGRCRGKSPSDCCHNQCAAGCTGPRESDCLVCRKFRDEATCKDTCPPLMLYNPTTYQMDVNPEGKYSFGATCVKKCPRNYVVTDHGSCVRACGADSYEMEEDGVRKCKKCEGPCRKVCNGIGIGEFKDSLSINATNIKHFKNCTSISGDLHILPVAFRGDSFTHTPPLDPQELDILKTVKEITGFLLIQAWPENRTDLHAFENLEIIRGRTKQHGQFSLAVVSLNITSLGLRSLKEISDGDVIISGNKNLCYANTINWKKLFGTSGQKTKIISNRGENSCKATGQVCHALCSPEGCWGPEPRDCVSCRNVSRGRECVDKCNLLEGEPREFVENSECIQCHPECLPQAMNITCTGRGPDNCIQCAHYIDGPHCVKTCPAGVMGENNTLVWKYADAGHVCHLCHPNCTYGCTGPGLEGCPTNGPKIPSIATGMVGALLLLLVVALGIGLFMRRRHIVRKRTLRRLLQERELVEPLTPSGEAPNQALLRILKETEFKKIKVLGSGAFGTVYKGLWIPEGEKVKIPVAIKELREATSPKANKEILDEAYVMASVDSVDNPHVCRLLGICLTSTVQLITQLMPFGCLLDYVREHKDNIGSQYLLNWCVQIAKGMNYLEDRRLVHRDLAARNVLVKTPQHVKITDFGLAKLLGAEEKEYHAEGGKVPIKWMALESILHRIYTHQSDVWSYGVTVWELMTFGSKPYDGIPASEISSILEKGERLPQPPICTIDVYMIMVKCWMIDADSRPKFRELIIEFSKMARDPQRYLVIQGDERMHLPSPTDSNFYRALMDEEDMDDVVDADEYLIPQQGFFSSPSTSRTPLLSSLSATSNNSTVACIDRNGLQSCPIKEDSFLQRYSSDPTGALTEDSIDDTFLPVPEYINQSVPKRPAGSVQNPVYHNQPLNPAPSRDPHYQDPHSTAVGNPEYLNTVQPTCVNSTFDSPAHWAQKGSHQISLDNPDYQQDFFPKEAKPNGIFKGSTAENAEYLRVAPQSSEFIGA

With `C=CC(=O)Nc1cccc(N2C(=O)N(Cc3ccccc3)Cc3cnc(Nc4ccc(N5CCC(N(C)C)CC5)nc4)nc32)c1` [Compound 72, N-(3-(3-benzyl-7-((6-(4-(dimethylamino)piperidin-1-yl)pyridin-3-yl)amino)-2-oxo-3,4-dihydropyrimido[4,5-d]pyrimidin-1(2H)-yl)phenyl)acrylamide], the IC50 (as a rule, the midpoint of a concentration-inhibition curve) in assay [1] is not below 10 µM. In addition, the GI50 in assay [2] came out at 0.1 µM; in assay [3] it was 0.296 µM; in assay [4], 0.575 µM.

For the compound `C=CC(=O)Nc1ccc(F)c(N2C(=O)N(Cc3ccccc3)Cc3cnc(Nc4cn(C)nc4Cl)nc32)c1` [Compound 81, N-(3-(3-benzyl-7-((3-chloro-1-methyl-1H-pyrazol-4-yl)amino)-2-oxo-3,4-dihydropyrimido[4,5-d]pyrimidin-1(2H)-yl)-4-fluorophenyl)acrylamide], the IC50 in assay [1] is not below 10 µM. Further, the values for the GI50 in assay [2], in assay [3] and in assay [4] were 0.027 µM, 0.035 µM and 0.013 µM, respectively.

With `C=CC(=O)Nc1cccc(N2C(=O)N(Cc3ccccc3)Cc3cnc(Nc4cccc5c4CCN5C)nc32)c1` [Compound 79, N-(3-(3-benzyl-7-((1-methylindolin-4-yl)amino)-2-oxo-3,4-dihydropyrimido[4,5-d]pyrimidin-1(2H)-yl)phenyl)acrylamide], the half-inhibitory concentration (IC50) in assay [1] was not below 10 µM. Further, the GI50 in assay [2] came out at 0.089 µM; in assay [3], 0.107 µM; in assay [4], 0.338 µM.

As to `Cn1cc(Nc2ncc3c(n2)N(c2cccc(NC(=O)/C=C/CN4CCOCC4)c2)C(=O)N(c2ccccc2)C3)c(Cl)n1` [Compound 122, (E)-N-(3-(7-((3-chloro-1-methyl-1H-pyrazol-4-yl)amino)-2-oxo-3-phenyl-3,4-dihydropyrimido[4,5-d]pyrimidin-1(2H)-yl)phenyl)-4-morpholinobut-2-enamide], the IC50 in assay [1] was not below 10 µM. Also, the GI50 in assay [2] is 0.101 µM; in assay [3] it was 0.284 µM; in assay [4], 0.132 µM.

As to `CN(C)C1CCN(C/C=C/C(=O)Nc2cccc(N3C(=O)N(c4ccccc4)Cc4cnc(Nc5cn(C)nc5Cl)nc43)c2)CC1` [Compound 124, (E)-N-(3-(7-((3-chloro-1-methyl-1H-pyrazol-4-yl)amino)-2-oxo-3-phenyl-3,4-dihydropyrimido[4,5-d]pyrimidin-1(2H)-yl)phenyl)-4-(4-(dimethylamino)piperidin-1-yl)but-2-enamide], in assay [1], the half-inhibitory concentration (IC50) is not below 10 µM. For the same compound, the GI50 is 2.76 µM in assay [2], 4.98 µM in assay [3] and 1.48 µM in assay [4].

On to `Cn1cc(Nc2ncc3c(n2)N(c2cccc(NC(=O)/C=C/CN4CCCCC4)c2)C(=O)N(Cc2ccccc2)C3)c(F)n1` [Compound 82, (E)-N-(3-(3-benzyl-7-((3-fluoro-1-methyl-1H-pyrazol-4-yl)amino)-2-oxo-3,4-dihydropyrimido[4,5-d]pyrimidin-1(2H)-yl)phenyl)-4-(piperidin-1-yl)but-2-enamide], for which, in assay [1], the IC50 was not below 10 µM. Further, the results for the GI50 in assay [2], in assay [3] and in assay [4] were 0.123 µM, 0.28 µM and 0.04 µM, respectively.

As for `CN(C)C/C=C/C(=O)Nc1cccc(N2C(=O)N(c3ccccc3)Cc3cnc(Nc4ccc(N5CCN(C)CC5)nc4)nc32)c1` [Compound 109, (E)-4-(dimethylamino)-N-(3-(7-((6-(4-methylpiperazin-1-yl)pyridin-3-yl)amino)-2-oxo-3-phenyl-3,4-dihydropyrimido[4,5-d]pyrimidin-1(2H)-yl)phenyl)but-2-enamide], the IC50 in assay [1] is not below 10 µM. In addition, the values for the GI50 in assay [2], in assay [3] and in assay [4] were 2.32 µM, 6.03 µM and 3.3 µM, respectively.

Consider `CN(C)C/C=C/C(=O)Nc1cccc(N2C(=O)N(Cc3ccccc3)Cc3cnc(Nc4cn(C5CCN(C)CC5)nc4Cl)nc32)c1` [Compound 65, (E)-N-(3-(3-benzyl-7-((3-chloro-1-(1-methylpiperidin-4-yl)-1H-pyrazol-4-yl)amino)-2-oxo-3,4-dihydropyrimido[4,5-d]pyrimidin-1(2H)-yl)phenyl)-4-(dimethylamino)but-2-enamide trifluoroacetate salt], for which, in assay [1], the IC50 was not below 10 µM. Further, the values for the GI50 in assay [2], in assay [3] and in assay [4] were 0.964 µM, 1.09 µM and 0.732 µM, respectively.

`C=CC(=O)Nc1cccc(N2C(=O)N(c3ccccc3)Cc3cnc(Nc4cccc5c4CCN5C4CCN(C)CC4)nc32)c1` [Compound 118, N-(3-(7-((1-(1-methylpiperidin-4-yl)indolin-4-yl)amino)-2-oxo-3-phenyl-3,4-dihydropyrimido[4,5-d]pyrimidin-1(2H)-yl)phenyl)acrylamide]: the IC50 in assay [1] was not below 10 µM. The GI50 in assay [2] turned out to be 0.032 µM; in assay [3], 0.11 µM; in assay [4], 0.103 µM.

On to `Cn1cc(Nc2ncc3c(n2)N(c2cccc(NC(=O)/C=C/CF)c2)C(=O)N(Cc2ccccc2)C3)c(Cl)n1` [Compound 74, (E)-N-(3-(3-benzyl-7-((3-chloro-1-methyl-1H-pyrazol-4-yl)amino)-2-oxo-3,4-dihydropyrimido[4,5-d]pyrimidin-1(2H)-yl)phenyl)-4-fluorobut-2-enamide], for which, in assay [1], the IC50 is not below 10 µM. In addition, the GI50 in assay [2] is 0.011 µM; in assay [3] it was 0.025 µM; in assay [4] it was 0.08 µM.

For the compound `CN(C)C/C=C/C(=O)Nc1cccc(N2C(=O)N(Cc3ccccc3)Cc3cnc(Nc4cccc5c4CCN5C)nc32)c1` [Compound 80, (E)-N-(3-(3-benzyl-7-((1-methylindolin-4-yl)amino)-2-oxo-3,4-dihydropyrimido[4,5-d]pyrimidin-1(2H)-yl)phenyl)-4-(dimethylamino)but-2-enamide], the IC50 in assay [1] was not below 10 µM. Also, the GI50 in assay [2] came out at 0.343 µM; in assay [3] it was 0.806 µM; in assay [4], 0.296 µM.

Regarding `Cc1ccc(CN2Cc3cnc(Nc4cn(C)nc4Cl)nc3N(c3cccc(NC(=O)/C=C/CN(C)C)c3)C2=O)c(C)c1` [Compound 68, (E)-N-(3-(7-((3-chloro-1-methyl-1H-pyrazol-4-yl)amino)-3-(2,4-dimethylbenzyl)-2-oxo-3,4-dihydropyrimido[4,5-d]pyrimidin-1(2H)-yl)phenyl)-4-(dimethylamino)but-2-enamide], in assay [1], the IC50 was 6.02 µM. Also, the GI50 in assay [2] came out at 0.356 µM; in assay [3], 0.798 µM; in assay [4], 0.632 µM.

For the compound `CN(C)C/C=C/C(=O)Nc1cccc(N2C(=O)N(c3ccccc3)Cc3cnc(Nc4cn(C5CCN(C)CC5)nc4Cl)nc32)c1` [Compound 106, (E)-N-(3-(7-((3-chloro-1-(1-methylpiperidin-4-yl)-1H-pyrazol-4-yl)amino)-2-oxo-3-phenyl-3,4-dihydropyrimido[4,5-d]pyrimidin-1(2H)-yl)phenyl)-4-(dimethylamino)but-2-enamide], the half-maximal inhibitory concentration (IC50) in assay [1] came to 8.93 µM. In addition, the GI50 stood at 0.926 µM in assay [2], 1.11 µM in assay [3] and 0.995 µM in assay [4].

Regarding `C=CC(=O)Nc1cccc(N2C(=O)N(Cc3ccccc3)Cc3cnc(Nc4ccc(N5CCN(C)CC5)nc4)nc32)c1` [Compound 67, N-(3-(3-benzyl-7-((6-(4-methylpiperazin-1-yl)pyridin-3-yl)amino)-2-oxo-3,4-dihydropyrimido[4,5-d]pyrimidin-1(2H)-yl)phenyl)acrylamide], the IC50 in assay [1] was not below 10 µM. For the same compound, the GI50 in assay [2] stood at 0.041 µM; in assay [3], 0.084 µM; in assay [4] it was 0.09 µM.

In the case of `O=C(/C=C/CF)Nc1cccc(N2C(=O)N(c3ccccc3)Cc3cnc(Nc4cccnc4F)nc32)c1` [Compound 135, (E)-4-fluoro-N-(3-(7-((2-fluoropyridin-3-yl)amino)-2-oxo-3-phenyl-3,4-dihydropyrimido[4,5-d]pyrimidin-1(2H)-yl)phenyl)but-2-enamide], in assay [1], the IC50 was more than 10 µM. In addition, the figures for the GI50 in assay [2], in assay [3] and in assay [4] were 0.043 µM, 0.12 µM and 0.294 µM, respectively.
